Laboratory results from patent US10221163B2 (priority 2015, dated 2019).
Like-named read-outs stand apart in the source and are kept apart here.

Assays:
[1] = tested on: Klebsiella pneumoniae expressing VIM-1 (IHMA599644); assay type: cell-based; details: for Klebsiella pneumoniae MITC95: VIM-1 strain IHMA599644, with imipenem 1 μg/ml, 95% inhibition of growth; for Klebsiella pneumoniae expressing VIM-1 (IHMA599644) MITC95: with imipenem 1 μg/ml, 95% inhibition of bacterial growth
Method in brief: (§1)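 Clinical isolates (E. coli NDM-1, S. marcescens IMP-1, K. pneumoniae VIM-1) were diluted 1:100 from saline suspension into 1.1×CAMHB and exposed to test compound with imipenem at 1 μg/ml. Plates were incubated at 35° C for 22 hours to 24 hours, and growth was read by absorbance.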

[2] = tested on: Serratia marcescens expressing IMP-1 (CL5741); assay type: cell-based; details: for Serratia marcescens MITC95: IMP-1 strain CL5741, with imipenem 1 μg/ml, 95% inhibition of growth; for Serratia marcescens expressing IMP-1 (CL5741) MITC95: with imipenem 1 μg/ml, 95% inhibition of bacterial growth
Method in brief: as §1

[3] = tested on: Escherichia coli expressing NDM-1 (CLB30005, CLB30016); assay type: cell-based; details: with imipenem 1 μg/ml; for Escherichia coli MITC95: NDM-1 strain, 95% inhibition of growth; for Escherichia coli expressing NDM-1 (CLB30016) MITC95: 95% inhibition of bacterial growth
Method in brief: as §1

[4] = target: VIM-1 (Pseudomonas aeruginosa (strain ATCC 15692 / DSM 22644 / CIP 104116 / JCM 14847 / LMG 12228 / 1C / PRS 101 / PAO1), UniProt A0A0F7KYQ8); experiment: biochemical; details: CCF2-FA substrate, 30 pM enzyme, 2 hours at 25° C.
Method in brief: (§2)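 Test compound, enzyme and the FRET cephalosporin substrate CCF2-FA are incubated together for 2 hours at 25° C. Cleavage is followed by fluorescence, and IC50 values are derived from semi-logarithmic inhibition curves fitted with a 4-parameter model.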

[5] = tested on: Pseudomonas aeruginosa efflux+ (MB9798), IMP-1; assay type: cell-based; set-up: Concentration of metallo-β-lactamase inhibitor which restores susceptibility of efflux + (MB9798) strain to imipenem: unit not given here; details: C, D serine β-lactamase inhibitor closely related to relebactam; for P. aeruginosa expressing IMP-1, efflux + (MB9798) MITC95: concentration restoring susceptibility to imipenem at 2 μg/mL in the presence of a class A; for Concentration of metallo-β-lactamase inhibitor which restores susceptibility of efflux + (MB9798) strain to imipenem: imipenem at 2 μg/mL, in the presence of a class A
Method in brief: (§3)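 PAO1 pair, broth microdilution; fixed β-lactam (imipenem/ceftazidime) at ~CLSI breakpoint + fixed class A/C BLI for AmpC; serial MBLi titration; endpoint = MBLi conc. restoring susceptibility; MB9798:MB9799 ratio = efflux liability.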

[6] = target: NDM-1 (Klebsiella pneumoniae, UniProt C7C422); experiment: biochemical; assay type: biochemical; details: fluorescence assay, CCF2-FA substrate, 1 pM enzyme, 2 hours at 25° C.; read-out: NDM-1 IC50
Method in brief: as §2

[7] = target: IMP-1 (Serratia marcescens, UniProt P52699); experiment: biochemical; assay type: biochemical; details: fluorescence assay, CCF2-FA substrate, 2 pM enzyme, 2 hours at 25° C.; read-out: IMP-1 IC50
Method in brief: as §2

[8] = tested on: Pseudomonas aeruginosa efflux− (MB9799), IMP-1; assay type: cell-based; details: C, D serine β-lactamase inhibitor closely related to relebactam; for P. aeruginosa expressing IMP-1, efflux − (MB9799) MITC95: concentration restoring susceptibility to imipenem at 2 μg/mL in the presence of a class A; for Concentration of metallo-β-lactamase inhibitor which restores susceptibility of efflux − (MB9799) strain to imipenem: imipenem at 2 μg/mL, in the presence of a class A
Method in brief: as §3

[9] = tested on: Pseudomonas aeruginosa MB9798 vs MB9799
Method in brief: as §3

[10] = ratio MITC95 PA_9798/MITC95 PA_9799
[11] = fluorescence assay, read-out: VIM-1 IC50
[12] = fold difference between efflux+ (MB9798) and efflux− (MB9799) strains, imipenem at 2 μg/mL

IMP-1, sequence (P52699 whole entry, looked up, species assumed): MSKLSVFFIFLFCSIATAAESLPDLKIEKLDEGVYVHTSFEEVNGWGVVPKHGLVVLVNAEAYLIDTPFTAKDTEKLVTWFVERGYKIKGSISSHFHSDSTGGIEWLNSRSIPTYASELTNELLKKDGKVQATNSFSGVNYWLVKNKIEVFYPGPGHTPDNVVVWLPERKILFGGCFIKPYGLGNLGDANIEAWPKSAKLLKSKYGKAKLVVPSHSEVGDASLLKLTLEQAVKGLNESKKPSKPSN
NDM-1, sequence (C7C422 whole entry, looked up, species assumed): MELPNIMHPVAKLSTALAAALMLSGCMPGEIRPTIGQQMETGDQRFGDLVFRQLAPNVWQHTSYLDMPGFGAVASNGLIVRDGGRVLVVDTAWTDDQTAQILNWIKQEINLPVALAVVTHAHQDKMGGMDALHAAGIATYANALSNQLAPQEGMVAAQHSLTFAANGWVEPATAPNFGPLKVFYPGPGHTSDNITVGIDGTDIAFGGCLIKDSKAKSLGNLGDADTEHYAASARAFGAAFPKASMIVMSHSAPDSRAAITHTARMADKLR

| SMILES | Klebsiella pneumoniae MITC95 [1] [µM] | Serratia marcescens MITC95 [2] [µM] | Escherichia coli MITC95 [3] [µM] | IC50 ([4]; VIM-1 IC50, fluorescence assay) [nM] | P. aeruginosa expressing IMP-1, efflux + (MB9798) MITC95 [5] [µM] | IC50 [6] [nM] | IC50 [7] [nM] | P. aeruginosa expressing IMP-1, efflux − (MB9799) MITC95 [8] [µM] | Efflux ratio [9, 10] | IC50 [4, 11] [nM] | Concentration of metallo-β-lactamase inhibitor which restores susceptibility of efflux + (MB9798) strain to imipenem [5] | Concentration of metallo-β-lactamase inhibitor which restores susceptibility of efflux − (MB9799) strain to imipenem [8] | Efflux ratio [9, 12] | Klebsiella pneumoniae expressing VIM-1 (IHMA599644) MITC95 [1] [µM] | Serratia marcescens expressing IMP-1 (CL5741) MITC95 [2] [µM] | Escherichia coli expressing NDM-1 (CLB30016) MITC95 [3] [µM] |
| --- | --- | --- | --- | --- | --- | --- | --- | --- | --- | --- | --- | --- | --- | --- | --- | --- |
| Nc1nc2c(-c3ccc(S(=O)(=O)NC[C@]4(N)CCNC4)c(S(N)(=O)=O)c3-c3nn[nH]n3)cccc2s1 [Example 366, (S)-4-(2-aminobenzo[d]thiazol-4-yl)-N^1-((3-aminopyrrolidin-3-yl)methyl)-3-(2H-tetrazol-5-yl) benzene-1,2-disulfonamide] | 3.125 | 1.563 | 0.7813 | 0.105 | 0.7813 | 0.0225 | 0.0753 | 0.7813 | 1.00 | – | – | – | – | – | – | – |
| Nc1ncc(-c2cccc(-c3ccc(S(=O)(=O)N[C@@H]4CCNC4)c(S(N)(=O)=O)c3-c3nnn[nH]3)n2)[nH]1 [Example 439, (R)-4-(6-(2-Amino-1H-imidazol-5-yl)pyridin-2-yl)-N^1-(pyrrolidin-3-yl)-3-(1H-tetrazol-5-yl)benzene-1,2-disulfonamide] | 1.563 | 1.563 | 3.125 | – | – | 0.254 | 6.72 | – | – | 0.629 | 6.25 | 1.563 | 4.00 | – | – | – |
| CC1(NS(=O)(=O)c2ccc(-c3cccc4[nH]c(N)nc34)c(-c3nn[nH]n3)c2S(N)(=O)=O)CNC1 [Example 257] | 0.7813 | 0.7813 | 0.3906 | 0.157 | 0.7813 | 0.033 | 0.642 | 0.7813 | 1.00 | – | – | – | – | – | – | – |
| CNc1nc2c(-c3ccc(S(=O)(=O)N[C@@H]4CCNC4)c(S(N)(=O)=O)c3-c3nn[nH]n3)cccc2[nH]1 [Example 280, (R)-4-(2-(methylamino)-1H-benzo[d]imidazol-4-yl)-N1-(pyrrolidin-3-yl)-3-(2H-tetrazol-5-yl)benzene-1,2-disulfonamide] | 1.563 | 0.7813 | 0.7813 | – | 0.3906 | 0.0408 | 0.61 | 0.7813 | 0.50 | 0.158 | – | – | – | – | – | – |
| NCCN1CC[C@@H](NS(=O)(=O)c2ccc(-c3cccc4[nH]c(N)nc34)c(-c3nn[nH]n3)c2S(N)(=O)=O)C1 [Example 246, (R)-4-(2-amino-1H-benzo[d]imidazol-4-yl)-N1-(1-(2-aminoethyl)pyrrolidin-3-yl)-3-(2H-tetrazol-5-yl)benzene-1,2-disulfonamide] | 1.563 | 1.563 | 0.7813 | 0.12 | 1.563 | 0.0405 | 0.853 | 0.7813 | 2.00 | – | – | – | – | – | – | – |
| CN(C)S(=O)(=O)c1ccc(-c2cccc3sc(N)nc23)c(-c2nn[nH]n2)c1S(N)(=O)=O [Example 151, 4-(2-aminobenzo[d]thiazol-4-yl)-N1,N1-dimethyl-3-(2H-tetrazol-5-yl)benzene-1,2-disulfonamide] | – | – | – | – | 50 | 5.94 | 2.43 | 3.125 | 16.00 | 9.22 | – | – | – | 50 | 6.25 | 12.5 |
| NCCNS(=O)(=O)c1ccc(-c2cccc3[nH]c(C(F)(F)CN)nc23)c(-c2nn[nH]n2)c1S(N)(=O)=O [Example 445, 4-(2-(2-amino-1,1-difluoroethyl)-1H-benzo[d]imidazol-4-yl)-N1-(2-aminoethyl)-3-(2H-tetrazol-5-yl)benzene-1,2-disulfonamide] | 3.125 | 3.125 | 3.125 | – | – | 0.0446 | 0.37 | – | – | 0.114 | 1.563 | 1.563 | 1.00 | – | – | – |
| Nc1nc2c(-c3ccc(S(=O)(=O)N4CCC(CO)CC4)c(S(N)(=O)=O)c3-c3nnn[nH]3)cccc2s1 [Example 25, 3-(2-amino-1,3-benzothiazol-4-yl)-6-{[4-(hydroxymethyl)piperidin-1-yl]sulfonyl}-2-(1H-tetrazol-5-yl)benzenesulfonamide] | – | – | – | – | 50 | 3.02 | 2.24 | 3.125 | 16.00 | 4.52 | – | – | – | 25 | 6.25 | 25 |
| Cl.Cn1c(N)nc2c(-c3ccc(S(=O)(=O)NCCN)c(S(N)(=O)=O)c3-c3nn[nH]n3)cccc21 [Example 10, 4-(2-amino-1-methyl-1H-benzo[d]imidazol-4-yl)-N1-(2-aminoethyl)-3-(2H-tetrazol-5-yl)benzene-1,2-disulfonamide hydrochloride] | – | – | – | – | 0.7656 | 0.0901 | 0.235 | 0.7656 | 1.00 | 0.177 | – | – | – | 1.531 | 0.6406 | 0.1875 |
| NCCn1nnc2c(-c3ccc(S(=O)(=O)N[C@@H]4CCNC4)c(S(N)(=O)=O)c3-c3nn[nH]n3)cccc21 [Example 289] | 1.563 | 1.563 | 0.7813 | – | 1.563 | 0.249 | 1.22 | 0.7813 | 2.00 | 0.104 | – | – | – | – | – | – |
